{"source": "patent US6737383B1", "about": "“Herbicidal oxadiazolidines” (priority 1999, dated 2004)", "key": {"wild mustard": {"tested_on": "wild mustard", "assay": "Test E wild mustard", "type": "in vivo, Sinapis arvensis", "settings": "Postemergence", "in_short": "(§1)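 Postemergence: spray at 1–4 leaf stage, soil 60:40 sandy loam:potting mix; solvent + surfactant formulation; greenhouse 21–28 d; visual injury vs untreated controls.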"}, "common poppy": {"tested_on": "common poppy", "assay": "Test E common poppy", "type": "in vivo, Papaver rhoeas", "settings": "Postemergence", "protocol": "(§2) Compounds evaluated in this test were formulated in a non-phytotoxic solvent mixture which included a surfactant and applied to plants that were in the 1- to 4-leaf stage (postemergence application). A mixture of sandy loam soil and greenhouse potting mix in a 60:40 ratio was used for the postemergence test.\n(§3) Plantings of these crops and weed species were adjusted to produce plants of appropriate size for the postemergence test. All plant species were grown using normal greenhouse practices. Crop and weed species include annual bluegrass (Poa annua), blackgrass (Alopecurus myosuroides), black nightshade (Solanum nigra), chickweed (Stellaria media), common poppy (Papaver rhoeas), deadnettle (Lamium amplexicaule), downy brome (Bromus tectorum), field violet (Viola arvensis), galium (Galium aparine), green foxtail (Setaria viridis), Italian ryegrass (Lolium multiflorum), jointed goatgrass (Aegilops cylindrica), kochia (Kochia scoparia), lambsquarters (Chenopodium album), littleseed canarygrass (Phalaris minor), rape (Brassica napus), redroot pigweed (Amaranthus retroflexus), Russian thistle (Salsola kali), scentless chamomile (Matricaria inodora), spring barley (Hordeum vulgare), sugar beet (Beta vulgaris), sunflower (Helianthus annuus), ivyleaf speedwell (Veronica hederaefolia), spring wheat (Triticum aestivum), winter wheat (Triticum aestivum), wild buckwheat (Polygonum convolvulus), wild mustard (Sinapis arvensis), wild oat (Avena fatua), windgrass (Apera spica-venti) and winter barley (Hordeum vulgare).\n(§4) Treated plants and untreated controls were maintained in a greenhouse for approximately 21 to 28 days, after which all treated plants were compared to untreated controls and visually evaluated. […] A dash response (-) means no test result."}, "blackgrass": {"tested_on": "blackgrass", "assay": "Test E blackgrass", "type": "in vivo, Alopecurus myosuroides", "settings": "Postemergence", "protocol": "as §2, §3, §4"}, "redroot pigweed": {"tested_on": "redroot pigweed", "assay": "Test E redroot pigweed", "type": "in vivo, Amaranthus retroflexus", "settings": "Preemergence"}, "spring barley [1]": {"tested_on": "spring barley", "assay": "Test E spring barley", "type": "in vivo, Hordeum vulgare", "settings": "Preemergence"}, "lambsquarters": {"tested_on": "lambsquarters", "assay": "Test E lambsquarters", "type": "in vivo, Chenopodium album", "settings": "Postemergence", "in_short": "as §1"}, "Russian thistle [2]": {"tested_on": "Russian thistle", "assay": "Test E Russian thistle", "type": "in vivo, Salsola kali", "settings": "Preemergence"}, "littleseed canarygrass": {"tested_on": "littleseed canarygrass", "assay": "Test E littleseed canarygrass", "type": "in vivo, Phalaris minor", "settings": "Preemergence"}, "field violet": {"tested_on": "field violet", "assay": "Test E field violet", "type": "in vivo, Viola arvensis", "settings": "Preemergence"}, "Russian thistle [3]": {"tested_on": "Russian thistle", "assay": "Test E Russian thistle", "type": "in vivo, Salsola kali", "settings": "Postemergence", "protocol": "[…] A mixture of sandy loam soil and greenhouse potting mix in a 60:40 ratio was used for the postemergence test.\nas §3, §4"}, "ivyleaf speedwell": {"tested_on": "ivyleaf speedwell", "assay": "Test E postemergence ivyleaf speedwell", "type": "in vivo, Veronica hederaefolia", "protocol": "as §2, §3, §4"}, "sugar beet": {"tested_on": "sugar beet", "assay": "Test E sugar beet", "type": "in vivo, Beta vulgaris", "settings": "Preemergence"}, "downy brome": {"tested_on": "downy brome", "assay": "Test E downy brome", "type": "in vivo, Bromus tectorum", "settings": "Postemergence; for Plant response rating, Downy brome: 0 to 100 scale", "in_short": "as §1"}, "green foxtail": {"tested_on": "green foxtail", "assay": "Test E green foxtail", "type": "in vivo, Setaria viridis", "settings": "Postemergence", "protocol": "as §2, §3, §4"}, "deadnettle": {"tested_on": "deadnettle", "assay": "Test E deadnettle", "type": "in vivo, Lamium amplexicaule", "settings": "Postemergence", "protocol": "as §2, §3, §4"}, "spring barley [4]": {"tested_on": "spring barley", "assay": "Test E spring barley", "type": "in vivo, Hordeum vulgare", "settings": "Postemergence", "protocol": "as §2, §3, §4"}, "Italian ryegrass": {"tested_on": "Italian ryegrass", "assay": "Test E Italian ryegrass", "type": "in vivo, Lolium multiflorum", "settings": "Postemergence", "in_short": "as §1"}, "wild buckwheat": {"tested_on": "wild buckwheat", "assay": "Test E wild buckwheat", "type": "in vivo, Polygonum convolvulus", "settings": "Preemergence"}, "[5]": {"settings": "Rate 250 g/ha, 0 to 100 scale (0 no effect, 100 complete control)"}, "[6]": {"settings": "Rate 500 g/ha, 0 to 100 scale, 0 no effect, 100 complete control"}, "[7]": {"settings": "Rate 125 g/ha, 0 to 100 scale (0 no effect, 100 complete control)"}, "[8]": {"settings": "Rate 500 g/ha, 0 to 100 scale where 0 is no effect and 100 is complete control"}}}
{"molecule": "CC(C)N(C(=O)n1oc(=O)n(C(C)C)c1=O)c1ccc(F)cc1F", "note": "[Compound 109]", "values": [{"measurement": "Plant response rating, Wild mustard", "setting": "wild mustard; Rate 125 g/ha, 0 to 100 scale", "result": 40}, {"measurement": "Plant response rating, Wild mustard", "setting": "wild mustard; [5]", "result": 50}, {"measurement": "Plant response rating, Wild mustard", "setting": "wild mustard; [6]", "result": 20}, {"measurement": "Plant response rating, Comnion poppy", "setting": "common poppy; Rate 125 g/ha, 0 to 100 scale", "result": 30}, {"measurement": "Plant response rating, Common poppy", "setting": "common poppy; [5]", "result": 10}, {"measurement": "Plant response rating, Common poppy", "setting": "common poppy; [6]", "result": 10}, {"measurement": "Plant response rating, Blackgrass", "setting": "blackgrass; Rate 125 g/ha, 0 to 100 scale", "result": 30}, {"measurement": "Plant response rating, Blackgrass", "setting": "blackgrass; [5]", "result": 10}, {"measurement": "Plant response rating, Blackgrass", "setting": "blackgrass; [6]", "result": 70}, {"measurement": "Plant response rating, Redroot pigweed", "setting": "redroot pigweed; [7]", "result": 70}, {"measurement": "Plant response rating, Redroot pigweed", "setting": "redroot pigweed; Rate 250 g/ha, 0 to 100 scale", "result": 100}, {"measurement": "Plant response rating, Redroot pigweed", "setting": "redroot pigweed; [8]", "result": 100}, {"measurement": "Plant response rating, Spring Barley", "setting": "spring barley [1]; [7]", "result": 5}, {"measurement": "Plant response rating, Spring Barley", "setting": "spring barley [1]; Rate 250 g/ha, 0 to 100 scale", "result": 20}, {"measurement": "Plant response rating, Spring Barley", "setting": "spring barley [1]; [8]", "result": 50}, {"measurement": "Plant response rating Lambsquarters", "setting": "lambsquarters; Rate 125 g/ha, 0 to 100 scale", "result": 20}, {"measurement": "Plant response rating Lambsquarters", "setting": "lambsquarters; [5]", "result": 30}, {"measurement": "Plant response rating Lambsquarters", "setting": "lambsquarters; [6]", "result": 30}, {"measurement": "Plant response rating, Russian thistle", "setting": "Russian thistle [2]; [7]", "result": 0}, {"measurement": "Plant response rating, Russian thistle", "setting": "Russian thistle [2]; Rate 250 g/ha, 0 to 100 scale", "result": 0}, {"measurement": "Plant response rating, Russian thistle", "setting": "Russian thistle [2]; [8]", "result": 0}, {"measurement": "Plant response rating, LS canarygrass", "setting": "littleseed canarygrass; [7]", "result": 50}, {"measurement": "Plant response rating, LS canarygrass", "setting": "littleseed canarygrass; Rate 250 g/ha, 0 to 100 scale", "result": 60}, {"measurement": "Plant response rating, LS canarygrass", "setting": "littleseed canarygrass; [8]", "result": 50}, {"measurement": "Plant response rating, Field violet", "setting": "field violet; [7]", "result": 50}, {"measurement": "Plant response rating, Field violet", "setting": "field violet; Rate 250 g/ha, 0 to 100 scale", "result": 15}, {"measurement": "Plant response rating, Field violet", "setting": "field violet; [8]", "result": 20}, {"measurement": "Plant response rating, Russian thistle", "setting": "Russian thistle [3]; Rate 125 g/ha, 0 to 100 scale", "result": 0}, {"measurement": "Plant response rating, Russian thistle", "setting": "Russian thistle [3]; [5]", "result": 0}, {"measurement": "Plant response rating, Russian thistle", "setting": "Russian thistle [3]; [6]", "result": 0}, {"measurement": "Plant response rating, Veronica hedera", "setting": "ivyleaf speedwell; Rate 125 g/ha, 0 to 100 scale", "result": 20}, {"measurement": "Plant response rating, Veronica hedera", "setting": "ivyleaf speedwell; [5]", "result": 50}, {"measurement": "Plant response rating, Veronica hedera", "setting": "ivyleaf speedwell; [6]", "result": 70}, {"measurement": "Plant response rating, Sugar beet", "setting": "sugar beet; [7]", "result": 0}, {"measurement": "Plant response rating, Sugar beet", "setting": "sugar beet; Rate 250 g/ha, 0 to 100 scale", "result": 60}, {"measurement": "Plant response rating, Sugar beet", "setting": "sugar beet; [8]", "result": 70}, {"measurement": "Plant response rating, Downy brome", "setting": "downy brome; Rate 125 g/ha", "result": 0}, {"measurement": "Plant response rating, Downy brortie", "setting": "downy brome; [5]", "result": 0}, {"measurement": "Plant response rating, Downy brome", "setting": "downy brome; Rate 500 g/ha, 0 no effect, 100 complete control", "result": 0}, {"measurement": "Plant response rating, Green foxtail", "setting": "green foxtail; Rate 125 g/ha, 0 to 100 scale", "result": 30}, {"measurement": "Plant response rating, Green foxtail", "setting": "green foxtail; [5]", "result": 65}, {"measurement": "Plant response rating, Green foxtail", "setting": "green foxtail; [6]", "result": 80}, {"measurement": "Plant response rating, Deadnettle", "setting": "deadnettle; Rate 125 g/ha, 0 to 100 scale", "result": 0}, {"measurement": "Plant response rating, Deadnettle", "setting": "deadnettle; [5]", "result": 30}, {"measurement": "Plant response rating, Deadnettle", "setting": "deadnettle; [6]", "result": 30}, {"measurement": "Plant response rating, Spring Barley", "setting": "spring barley [4]; Rate 125 g/ha, 0 to 100 scale", "result": 30}, {"measurement": "Plant response rating, Spring Barley", "setting": "spring barley [4]; [5]", "result": 20}, {"measurement": "Plant response rating, Spring Barley", "setting": "spring barley [4]; [6]", "result": 20}, {"measurement": "Plant response rating, I. Ryegrass", "setting": "Italian ryegrass; Rate 125 g/ha, 0 to 100 scale", "result": 10}, {"measurement": "Plant response rating, I. Ryegrass", "setting": "Italian ryegrass; [5]", "result": 10}, {"measurement": "Plant response rating, I. Ryegrass", "setting": "Italian ryegrass; [6]", "result": 65}, {"measurement": "Plant response rating, Wild buckwheat", "setting": "wild buckwheat; [7]", "result": 20}, {"measurement": "Plant response rating, Wild buckwheat", "setting": "wild buckwheat; Rate 250 g/ha, 0 to 100 scale", "result": 85}, {"measurement": "Plant response rating, Wild buckwheat", "setting": "wild buckwheat; [8]", "result": 90}]}
